Among the data in US10669272B2, “Substituted naphthyridinone compounds useful as T cell activators” (BRISTOL-MYERS SQUIBB COMPANY, priority 2018, dated 2020) are IC50 and EC50 values, retold here.

Where two headings read alike, the source gives them in different places.

In experiment [1] the test system is OT-1 CD8+ T cells with SIINFEKL-loaded MC38 tumor cells. The experiment in a line: Murine cytotoxic T lymphocyte assay (IFN-γ, OT-1 CTL with MC38 tumor cells). Type of experiment: cell-based, mouse. Particulars: read-out: msCTL INFg IC50. The essentials:
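IFN-γ was quantified by AlphaLISA in supernatants after 24 h co-culture at 37° C. Effectors were OT-1 CD8+ CTLs (5-day peptide/mIL2 expansion), exposed 1 h to DGK inhibitors before mixing 1:10 with MC38 tumor cells loaded 3 h with 1 μg/mL SIINFEKL peptide.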

In experiment [2] the target is T1, human DGKα (Homo sapiens, UniProt P23743).
T1 construct: TVMV protease cleavage site (C); Hexa-His (C); made in house; host or cells: Sf9 insect cells (baculovirus, Bac-to-Bac)
The experiment in a line: DGKα LIPGLO assay (extruded liposome substrate), in vitro DGK inhibition. Type of experiment: biochemical. Particulars: liposome (LIPGLO) assay; read-out: DGKa LIPGLO IC50.

The test system of experiment [3] is naïve human CD8 T cells. The experiment in a line: Human CD8 T cells IFN-γ assay.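 Further: Naïve human CD8 T cells stimulated with plate-bound anti-CD3 and soluble anti-CD28, IFN-γ in supernatant quantified by AlphaLISA and converted to pg/mL.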 It counts as cell-based. The following applies: normalized to 3 μM reference compound with anti-CD3 plus anti-CD28 as 100% activation, read-out: HuCD8 INFG Normalized EC50.
The test system of experiment [4] is Human venous whole blood. The experiment is described as follows: Human whole blood IFN-γ assay.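 Further: blood from healthy donors exposed to compound for 1 h before stimulation with anti-CD3 and anti-CD28 at 1 µg/mL each, IFN-γ quantified in supernatant by AlphaLISA.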 The following applies: human whole blood, normalized to 3 μM reference compound with anti-CD3 plus anti-CD28 as 100% activation, read-out: INFg Whole Blood Normalized Agonist EC50. Type of experiment: cell-based.
Procedure: Human Whole Blood IFN-γ Assay
Human venous whole blood (22.5 μL per well), obtained from healthy donors, was pre-treated with compounds for one hour at 37° C. in a humidified 95% air/5% CO2 incubator. The blood was stimulated with 2.5 μL anti-human CD3 and anti-CD28 mAb at a final concentration of 1 μg/mL each for 24 hours at 37° C. IFN-γ in the supernatants was measured using AlphLISA kit (Cat # AL217).
The target of experiment [5] is T2, human DGKζ (Homo sapiens, UniProt Q13574).
T2 construct: TVMV protease cleavage site (C); Hexa-His (C); made in house; host or cells: Sf9 insect cells (baculovirus, Bac-to-Bac)
The experiment in a line: DGKζ LIPGLO assay (extruded liposome substrate), in vitro DGK inhibition. Type of experiment: biochemical. The following applies: liposome (LIPGLO) assay; read-out: DGKz LIPGLO IC50.

T2 sequence (Q13574 with tags, fused parts or gaps isoform Q13574-4): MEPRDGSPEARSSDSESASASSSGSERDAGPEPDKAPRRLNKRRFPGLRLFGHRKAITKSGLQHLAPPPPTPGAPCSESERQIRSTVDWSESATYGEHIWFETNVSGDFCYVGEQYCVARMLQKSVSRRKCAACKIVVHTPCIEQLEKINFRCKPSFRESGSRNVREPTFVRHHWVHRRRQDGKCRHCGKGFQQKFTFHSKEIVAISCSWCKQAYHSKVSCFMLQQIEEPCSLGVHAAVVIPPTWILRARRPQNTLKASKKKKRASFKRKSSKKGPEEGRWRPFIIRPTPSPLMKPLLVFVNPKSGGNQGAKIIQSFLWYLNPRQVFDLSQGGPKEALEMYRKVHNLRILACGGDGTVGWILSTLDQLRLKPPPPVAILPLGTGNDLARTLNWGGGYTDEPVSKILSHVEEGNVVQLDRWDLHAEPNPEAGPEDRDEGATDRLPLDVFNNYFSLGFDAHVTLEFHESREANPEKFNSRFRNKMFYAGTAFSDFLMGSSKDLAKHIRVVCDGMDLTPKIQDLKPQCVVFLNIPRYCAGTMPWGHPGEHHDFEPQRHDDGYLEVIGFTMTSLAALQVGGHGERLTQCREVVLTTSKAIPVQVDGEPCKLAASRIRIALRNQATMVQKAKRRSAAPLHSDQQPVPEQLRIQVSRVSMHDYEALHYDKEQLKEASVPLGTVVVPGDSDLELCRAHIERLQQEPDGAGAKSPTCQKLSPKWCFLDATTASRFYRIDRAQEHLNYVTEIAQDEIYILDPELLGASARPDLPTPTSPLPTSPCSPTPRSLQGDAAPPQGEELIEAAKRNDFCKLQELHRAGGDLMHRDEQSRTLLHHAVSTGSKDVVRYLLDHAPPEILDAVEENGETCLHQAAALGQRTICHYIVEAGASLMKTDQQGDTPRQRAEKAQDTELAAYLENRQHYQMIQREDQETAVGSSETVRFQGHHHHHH
T1 sequence (P23743 with tags, fused parts or gaps): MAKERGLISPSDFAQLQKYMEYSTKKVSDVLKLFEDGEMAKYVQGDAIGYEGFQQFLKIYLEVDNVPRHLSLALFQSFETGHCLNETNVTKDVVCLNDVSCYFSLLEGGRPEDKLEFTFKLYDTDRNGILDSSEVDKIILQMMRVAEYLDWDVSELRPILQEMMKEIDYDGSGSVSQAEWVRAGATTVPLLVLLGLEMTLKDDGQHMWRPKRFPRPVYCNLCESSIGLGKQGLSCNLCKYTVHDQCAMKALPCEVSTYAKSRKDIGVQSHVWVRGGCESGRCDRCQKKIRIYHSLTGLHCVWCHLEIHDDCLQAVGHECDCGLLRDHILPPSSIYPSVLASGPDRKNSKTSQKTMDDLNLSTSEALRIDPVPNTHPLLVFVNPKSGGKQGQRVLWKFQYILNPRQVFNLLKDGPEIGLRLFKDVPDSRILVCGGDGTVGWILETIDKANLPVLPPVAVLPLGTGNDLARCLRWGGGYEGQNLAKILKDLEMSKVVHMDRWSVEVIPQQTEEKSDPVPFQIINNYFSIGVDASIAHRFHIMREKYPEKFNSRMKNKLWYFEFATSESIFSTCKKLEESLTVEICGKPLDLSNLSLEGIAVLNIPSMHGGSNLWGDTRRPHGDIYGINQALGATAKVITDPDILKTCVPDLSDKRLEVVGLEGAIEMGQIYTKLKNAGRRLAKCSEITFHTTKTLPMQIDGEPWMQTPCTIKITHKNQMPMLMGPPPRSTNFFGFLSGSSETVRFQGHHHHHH

The IC50 is the point on the concentration scale where inhibition reaches its midpoint. As a reminder, the EC50 is the concentration at which the effect is half-maximal. With `Cn1c(=O)cc(N2CCN(C(c3ccc(F)cc3)c3ccc(F)cc3)C(CO)C2)c2nc(C#N)ccc21` (single isomer, unassigned) [Example 2, 8-(4-(bis(4-fluorophenyl)methyl)-3-(hydroxymethyl)piperazin-1-yl)-5-methyl-6-oxo-5,6-dihydro-1,5-naphthyridine-2-carbonitrile], the half-inhibitory concentration (IC50) in experiment [1] (Mus musculus, MC-38) was 210 nM; in experiment [2] it was 2600 nM; in experiment [5], 3300 nM. The EC50 is 120 nM in experiment [3] (Homo sapiens, T-cell, 20 h) and 2700 nM in experiment [4].

In the case of `CC[C@@H]1CN(c2c(F)c(=O)n(C)c3ccc(C#N)nc23)CCN1C(c1ccc(F)cc1)c1ccc(F)cc1` [Example 174, (R)-8-(4-(bis(4-fluorophenyl)methyl)-3-ethylpiperazin-1-yl)-7-fluoro-5-methyl-6-oxo-5,6-dihydro-1,5-naphthyridine-2-carbonitrile], the concentration for half-maximal inhibition (IC50) is 110 nM in experiment [1] (Mus musculus, MC-38); 820 nM in experiment [2]; 430 nM in experiment [5]. Besides, the concentration giving a half-maximal response (EC50) worked out at 34 nM in experiment [3] (Homo sapiens, T-cell, 20 h) and 2200 nM in experiment [4] (Homo sapiens, 24 h).

As for `C[C@H]1CN(c2c(C#N)c(=O)n(C)c3ccc(C#N)nc23)CCN1C(c1ccc(F)cc1)c1ccc(F)cc1` [Example 38, (S)-8-(4-(bis(4-fluorophenyl)methyl)-3-methylpiperazin-1-yl)-5-methyl-6-oxo-5,6-dihydro-1,5-naphthyridine-2,7-dicarbonitrile], the 50% inhibitory concentration (IC50) in experiment [1] (Mus musculus, MC-38) was determined as 78 nM; in experiment [2], 2200 nM; in experiment [5], 1800 nM. The EC50 in experiment [3] (Homo sapiens, T-cell, 20 h) was determined as 67 nM; in experiment [4] (Homo sapiens, 24 h), 3200 nM.

As for `C[C@@H]1CN(c2c(C#N)c(=O)n(C)c3cccnc23)[C@@H](C)CN1C(c1ccc(F)cc1)c1ccc(F)cc1` [Example 160, 4-((2S,5R)-4-(bis(4-fluorophenyl)methyl)-2,5-dimethylpiperazin-1-yl)-1-methyl-2-oxo-1,2-dihydro-1,5-naphthyridine-3-carbonitrile], the IC50 in experiment [1] (Mus musculus, MC-38) was found to be 10000 nM; in experiment [2], 2400 nM; in experiment [5], 44000 nM. The concentration for a half-maximal effect (EC50) was 10000 nM in experiment [3] (Homo sapiens, T-cell, 20 h) and 20000 nM in experiment [4] (Homo sapiens, 24 h).

For the compound `CC(C)C(C)(O)C1CN(c2cc(=O)n(C)c3ccc(C#N)nc23)CCN1C(c1ccc(F)cc1)c1ccc(F)cc1` (single isomer, unassigned) [Example 88, 8-(4-(bis(4-fluorophenyl)methyl)-3-(2-hydroxy-3-methylbutan-2-yl)piperazin-1-yl)-5-methyl-6-oxo-5,6-dihydro-1,5-naphthyridine-2-carbonitrile], the IC50 in experiment [1] is 990 nM; in experiment [2], 140000 nM; in experiment [5] it was 240000 nM. The EC50 in experiment [3] (Homo sapiens, T-cell, 20 h) was determined as 2000 nM; in experiment [4] (Homo sapiens, 24 h) it was 10000 nM.

As to `COC(=O)C1CN(c2cc(=O)n(C)c3ccc(C#N)nc23)CCN1C(c1ccc(Cl)cc1)c1ccc(Cl)cc1` (single isomer, unassigned) [Example 97, methyl 1-(bis(4-chlorophenyl)methyl)-4-(6-cyano-1-methyl-2-oxo-1,2-dihydro-1,5-naphthyridin-4-yl)piperazine-2-carboxylate], the IC50 in experiment [1] (Mus musculus, MC-38) amounted to 96 nM; in experiment [2], 14000 nM; in experiment [5] it was 1700 nM. For the same compound, the EC50 in experiment [3] (Homo sapiens, T-cell, 20 h) amounted to 57 nM; in experiment [4], 1700 nM.

On to `C[C@@H]1CN(c2c(C#N)c(=O)n(C)c3ccc(C#N)nc23)[C@@H](C)CN1C(c1ccc(F)cc1)c1ccc(F)cc1` [Example 159, 8-((2S,5R)-4-(bis(4-fluorophenyl)methyl)-2,5-dimethylpiperazin-1-yl)-5-methyl-6-oxo-5,6-dihydro-1,5-naphthyridine-2,7-dicarbonitrile], for which the half-inhibitory concentration (IC50) was determined as 140 nM in experiment [1] (Mus musculus, MC-38); 2800 nM in experiment [2]; 960 nM in experiment [5]. The EC50 in experiment [3] (Homo sapiens, T-cell, 20 h) worked out at 35 nM; in experiment [4] (Homo sapiens, 24 h), 1000 nM.

Turning to `C[C@@H]1CN(c2c(Cl)c(=O)n(C)c3ccc(C#N)nc23)[C@@H](C)CN1C(c1ccc(Cl)cc1)c1ccc(Cl)cc1` [Example 26, 8-((2S,5R)-4-(bis(4-chlorophenyl)methyl)-2,5-dimethylpiperazin-1-yl)-7-chloro-5-methyl-6-oxo-5,6-dihydro-1,5-naphthyridine-2-carbonitrile], the 50% inhibitory concentration (IC50) in experiment [1] (Mus musculus, MC-38) came to 10000 nM; in experiment [2], 24000 nM; in experiment [5], 3000 nM. For the same compound, the 50% effective concentration (EC50) turned out to be 2300 nM in experiment [3] (Homo sapiens, T-cell, 20 h) and 20000 nM in experiment [4] (Homo sapiens, 24 h).

Turning to `Cc1ccc(C(c2ccc(Cl)cc2)N2C[C@H](C)N(c3cc(=O)n(C)c4ccc(C#N)nc34)C[C@H]2C)cc1` (single isomer, unassigned) [Example 247], the half-inhibitory concentration (IC50) in experiment [1] (Mus musculus, MC-38) was determined as 110 nM; in experiment [2] it was 370 nM; in experiment [5] it was 210 nM. The EC50 in experiment [3] (Homo sapiens, T-cell, 20 h) came to 120 nM; in experiment [4] (Homo sapiens, 24 h), 390 nM.

Regarding `Cn1c(=O)cc(N2CCN(C(c3ccc(F)cc3)c3ccc(F)cc3)C(C(C)(C)F)C2)c2nc(C#N)ccc21` (single isomer, unassigned) [Example 81, 8-(4-(bis(4-fluorophenyl)methyl)-3-(2-fluoropropan-2-yl)piperazin-1-yl)-5-methyl-6-oxo-5,6-dihydro-1,5-naphthyridine-2-carbonitrile], the half-maximal inhibitory concentration (IC50) came to 580 nM in experiment [1], 25000 nM in experiment [2] and 16000 nM in experiment [5]. Moreover, the EC50 in experiment [3] (Homo sapiens, T-cell, 20 h) was 1700 nM; in experiment [4], 8700 nM.

For `C[C@@H]1CN(c2c(F)c(=O)n(C)c3ccc(C#N)nc23)CCN1C(c1ccc(F)cc1)c1ccc(F)cc1` [Example 30, (R)-8-(4-(bis(4-fluorophenyl)methyl)-3-methylpiperazin-1-yl)-7-fluoro-5-methyl-6-oxo-5,6-dihydro-1,5-naphthyridine-2-carbonitrile], the IC50 is 15 nM in experiment [1] (Mus musculus, MC-38); 500 nM in experiment [2]; 430 nM in experiment [5]. For the same compound, the half-maximal effective concentration (EC50) in experiment [3] (Homo sapiens, T-cell, 20 h) worked out at 430 nM; in experiment [4] (Homo sapiens, 24 h), 1600 nM.

In the case of `Cn1c(=O)c(Cl)c(N2CCN(C(c3ccc(F)cc3)c3ccc(F)cc3)C(CO)C2)c2nc(C#N)ccc21` (single isomer, unassigned) [Example 100, 8-(4-(bis (4-fluorophenyl)methyl)-3-(hydroxymethyl)piperazin-1-yl)-7-chloro-5-methyl-6-oxo-5,6-dihydro-1,5-naphthyridine-2-carbonitrile], the IC50 was 110 nM in experiment [1] (Mus musculus, MC-38); 1900 nM in experiment [2]; 3100 nM in experiment [5]. The EC50 in experiment [3] (Homo sapiens, T-cell, 20 h) was 89 nM; in experiment [4] (Homo sapiens, 24 h) it was 1400 nM.

Take `C[C@@H]1CN(c2cc(=O)n(C)c3ccc(C#N)nc23)[C@@H](C)CN1C(c1ccc(F)cc1)c1ccc(C#N)cc1` (single isomer, unassigned) [Example 307]: the results for the IC50 in experiment [1], in experiment [2] and in experiment [5] were 31 nM, 470 nM and 1000 nM, respectively. Besides, the EC50 in experiment [3] came to 30 nM; in experiment [4] it was 330 nM.

With `COC(=O)C1CN(c2c(Cl)c(=O)n(C)c3ccc(C#N)nc23)CCN1C(c1ccc(F)cc1)c1ccc(F)cc1` (single isomer, unassigned) [Example 76, methyl 1-(bis(4-fluorophenyl)methyl)-4-(3-chloro-6-cyano-1-methyl-2-oxo-1,2-dihydro-1,5-naphthyridin-4-yl)piperazine-2-carboxylate], the half-maximal inhibitory concentration (IC50) in experiment [1] was 280 nM; in experiment [2] it was 3400 nM; in experiment [5], 5200 nM. The concentration giving a half-maximal response (EC50) in experiment [3] (Homo sapiens, T-cell, 20 h) is 10000 nM; in experiment [4] (Homo sapiens, 24 h), 1600 nM.

`Cc1c(N2C[C@@H](C)N(C(c3ccc(F)cc3)c3ccc(F)cc3)C[C@@H]2C)c2nc(C#N)ccc2n(C)c1=O` [Example 22, 8-((2S,5R)-4-(bis(4-fluorophenyl)methyl)-2,5-dimethylpiperazin-1-yl)-5,7-dimethyl-6-oxo-5,6-dihydro-1,5-naphthyridine-2-carbonitrile]: the IC50 turned out to be 10000 nM in experiment [1] (Mus musculus, MC-38); 44000 nM in experiment [2]; 37000 nM in experiment [5]. The 50% effective concentration (EC50) worked out at 10000 nM in experiment [3] (Homo sapiens, T-cell, 20 h) and 20000 nM in experiment [4] (Homo sapiens, 24 h).

For the compound `C[C@@H]1CN(C(c2ccc(F)cc2)c2ccc(F)cc2)CCN1c1cc(=O)n(C)c2ccc(C#N)nc12` [Example 135, (R)-8-(4-(bis(4-fluorophenyl)methyl)-2-methylpiperazin-1-yl)-5-methyl-6-oxo-5,6-dihydro-1,5-naphthyridine-2-carbonitrile], the IC50 in experiment [1] (Mus musculus, MC-38) is 3600 nM; in experiment [2], 110000 nM; in experiment [5], 10000 nM. The EC50 was determined as 10000 nM in experiment [3] (Homo sapiens, T-cell, 20 h) and 61000 nM in experiment [4] (Homo sapiens, 24 h).

With `C[C@@H]1CN(c2c(F)c(=O)n(C)c3ccc(C#N)nc23)[C@@H](C)CN1C(c1ccc(F)cc1)c1ccc(F)cc1` [Example 157, 8-((2S,5R)-4-(bis(4-fluorophenyl)methyl)-2,5-dimethylpiperazin-1-yl)-7-fluoro-5-methyl-6-oxo-5,6-dihydro-1,5-naphthyridine-2-carbonitrile], the 50% inhibitory concentration (IC50) in experiment [1] (Mus musculus, MC-38) stood at 78 nM; in experiment [2] it was 350 nM; in experiment [5] it was 380 nM. The concentration for a half-maximal effect (EC50) in experiment [3] (Homo sapiens, T-cell, 20 h) was found to be 72 nM; in experiment [4] (Homo sapiens, 24 h), 530 nM.
